Test results as given in patent US10906929B2, “Phosphoramidate nucleoside derivatives as anticancer agents” (NuCana plc, priority 2016, dated 2021).

Legend:
[1] = test system: L1210 cells infected with Mycoplasma hyorhinis (HYOR); assay: Cytostatic activity in mycoplasma-infected cells; format: cell-based, mouse
Text: (§1) Tumor cell cultures were infected with M. hyorhinis (ATCC 17981) and after two or more passages (to avoid bias by the initial inoculum) successful infection was confirmed using the MycoAlert™ mycoplasma detection kit (Lonza, Basel, Switzerland). Although this assay is only semi-quantitative, a maximal infection was observed 3 to 4 days after subcultivation of the mycoplasma-exposed cells. Chronically infected tumor cell lines are further referred to as Cell line.Hyor. All tumor cell cultures were maintained in Dulbecco's modified Eagle's medium (DMEM) (Invitrogen) supplemented with 10% fetal bovine serum (Biochrom AG, Berlin, Germany), 10 mm HEPES, and 1 mm sodium pyruvate (Invitrogen). Cells were grown at 37° C. in a humidified incubator with a gas phase containing 5% CO2.
(§2) The cytostatic activity of the test compounds was examined in mycoplasma-infected and uninfected cancer cell lines. When assaying the effect of M. hyorhinis infection, monolayer MCF7 and MCF7.Hyor cells were seeded in 48-well microtiter plates (Nunc™, Roskilde, Denmark) at 10,000 cells/well (Corning Inc., Corning, N.Y.) […]. After 24 h, the cells were exposed to different concentrations of test compound and allowed to proliferate for 72 h (to ensure sufficient cell proliferation and mycoplasma growth) after which the cells were trypsinized and counted using a Coulter counter (Analis, Suarlée, Belgium). Suspension cells (L1210, L1210.Hyor, FM3A, and FM3A.Hyor) were seeded in 96-well microtiter plates (Nunc) at 60,000 cells/well in the presence of different concentrations of test compound. The cells were allowed to proliferate for 48 h and then counted using a Coulter counter. The 50% inhibitory concentration (IC50) was defined as the compound concentration required to reduce cell proliferation by 50%.

[2] = test system: Z-138 Mantle cell lymphoma; assay: In vitro viability assay, CellTiterGlo; format: cell-based
Procedure: (§3) In vitro viability assay was performed to assess the effects of compounds on cell viability in selected cell lines over 72 h using the CellTiterGlo (CTG, Promega-G7573) assay. The tests were performed in duplicates with treatment of compounds at 9 points, 3.16 folds titration in 96 well plates over ˜72 h. The compound starting concentrations were […]. Cell viability assay using CellTiterGlo in 96-well plate were performed. Compounds were dissolved to 40 mM with thawed 100% DMSO. Compounds were serially diluted at 3.16-fold in thawed DMSO, and warmed to 37° C. before being dissolved in media (2 μl+200 μl). After compounds were dissolved in media, media containing compounds were warmed to 37° C. in incubator and then compounds in media were added to cell plates (50 μl+50 μl) in duplicates. The compounds' final concentrations were from 198 μM to 19.9 nM. Solubility of all compounds was checked and recorded again, then the plates were transferred to CO2 tissue culture incubator immediately and incubated for 3 days. DMSO final concentration is 0.5%.

[3] = test system: RL Non-Hodgkin's lymphoma; assay: In vitro viability assay, CellTiterGlo; format: cell-based; settings: 72 h
Procedure: as §3

[4] = test system: HEL92.1.7 Erythroleukaemia; assay: In vitro viability assay, CellTiterGlo; format: cell-based
Procedure: as §3

[5] = test system: HL-60 Promyelocytic leukaemia; assay: In vitro viability assay, CellTiterGlo; format: cell-based
Procedure: as §3

[6] = test system: KG-1 Acute myelogenous leukaemia; assay: In vitro viability assay, CellTiterGlo; format: cell-based
Procedure: as §3

L1210 = assay: Cytostatic activity, cell counting (Coulter counter); format: cell-based; settings: Mus musculus, L1210, 48 h, read-out: IC50 L1210
Text: as §1, §2

[7] = test system: MCF-7 Mammary epithelial adenocarcinoma; assay: In vitro viability assay, CellTiterGlo; format: cell-based, human
Procedure: as §3

HL-60 = assay: In vitro cytotoxicity, MTS assay; format: cell-based; settings: Homo sapiens, 72 h, read-out: Inhibitory concentration (IC50) HL-60
Procedure: (§4) Cladribine phosphoramidate derivatives were evaluated against six leukaemic cell lines (KG1, U937, K562, NB4R2, NB4 and HL-60) in vitro. Inhibitory concentration (IC50) at which 50% of the cells were no longer viable (calculated using MTS assay) was determined. Cells were treated with Cladribine and its 3′-phosphoramidate derivatives at concentrations between 100 μM and 0.02 μM by serial dilutions and incubated for 72 h at 37° C., 5% CO2 in a final volume of 90 μL. Twenty microliters of MTS reagent (Promega UK Ltd, Southampton, Hants) was added to the tumour cell cultures and reaction incubated for a further 4 h at 37° C., 5% CO2. The absorbance of the reaction after this time was read by spectrophotometry at 490 nm and the percentage of viable cells calculated relative to untreated control cells in the same assay.

NB4 = assay: In vitro cytotoxicity, MTS assay; format: cell-based; settings: Homo sapiens, NB-4, 72 h, read-out: Inhibitory concentration (IC50) NB4
Procedure: as §4

KG1a cell line = assay: Annexin V/propidium iodide apoptosis assay; format: cell-based; settings: 72 h, dose required to kill 50% of the cells
Procedure: (§5) Cells of the KG1a cell line were maintained in RPMI medium (Invitrogen, Paisley, UK) supplemented with 100 units/ml penicillin, 100 μg/ml streptomycin and 20% foetal calf serum. Cells were subsequently aliquoted (10^5 cells/100 μl) into 96-well plates and were incubated at 37° C. in a humidified 5% carbon dioxide atmosphere for 72 h in the presence of nucleoside analogues and their respective phosphoramidates at concentrations that were experimentally determined for each series of compounds. In addition, control cultures were carried out to which no drug was added. Cells were subsequently harvested by centrifugation and were analyzed by flow cytometry using the Annexin V assay.
Measurement of in vitro apoptosis. Cultured cells were harvested by centrifugation and then resuspended in 195 μl of calcium-rich buffer. Subsequently, 5 μl of Annexin V (Caltag Medsystems, Botolph Claydon, UK) was added to the cell suspension and cells were incubated in the dark for 10 mins prior to washing. Cells were finally resuspended in 190 μl of calcium-rich buffer together with 10 μl of propidium iodide. Apoptosis was assessed by dual-colour immunofluorescent flow cytometry as described previously. Subsequently LD50 values (the dose required to kill 50% of the cells in a culture) were calculated for each nucleoside analogue and phosphoramidate.
The data obtained in these experiments were evaluated using one way ANOVA. All data was confirmed as Gaussian or a Gaussian approximation using the omnibus K2 test. LD50 values were calculated from the non-linear regression and line of best-fit analysis of the sigmoidal dose-response curves. All statistical analyses were performed using Graphpad Prism 6.0 software (Graphpad Software Inc., San Diego, Calif.).

[8] = test system: leukaemic stem cell compartment (Lin-/CD34+/CD38-/CD123+) within the KG1a cell line; assay: Immunophenotypic identification of the leukaemic stem cell compartment; format: cell-based; settings: for Stem cell %: 72 h, LSC phenotype as percentage of all viable cells left, Control: 4%
Procedure: A further comparative analysis of the toxicity of compounds in the KG1a cell line over an extended dose range was carried out, and the relative effect assessed of the compounds on the leukaemic stem cell compartment within the KG1a cell line, across the entire dose range. Thus, experimental tests were performed on certain compounds of the present invention to assess their ability to target cancer stem cells in a leukaemic cell line. The acute myeloid leukaemia (AML) cell line, KG1a, was employed to assess the relative effect of compounds on the stem cell compartment. The KG1a cell line was selected because it manifests a minor stem cell-like compartment with a distinct immunophenotype (Lin^−/CD34^+/CD38^−/CD123^+).
as §5
KG1a cells were cultured for 72 h in the presence of a wide range of concentrations of each compound assayed. Cells were then harvested and labelled with a cocktail of anti-lineage antibodies (PE-cy7), anti-CD34 (FITC), anti-CD38 (PE) and anti-CD123 (PERCP cy5). The sub-population expressing a leukaemic stem cell (LSC) phenotype were subsequently identified and were expressed as a percentage of all viable cells left in the culture. […]

NB4R2 = assay: In vitro cytotoxicity, MTS assay; format: cell-based; settings: 72 h, read-out: Inhibitory concentration (IC50) NB4R2
Procedure: as §4

K562 = assay: In vitro cytotoxicity, MTS assay; format: cell-based; settings: Homo sapiens, 72 h, read-out: Inhibitory concentration (IC50) K562
Procedure: as §4

U937 = assay: In vitro cytotoxicity, MTS assay; format: cell-based; settings: Homo sapiens, U-937, 72 h, read-out: Inhibitory concentration (IC50) U937
Procedure: as §4

KG1 = assay: In vitro cytotoxicity, MTS assay; format: cell-based; settings: Homo sapiens, KG-1, 72 h, read-out: Inhibitory concentration (IC50) KG1
Procedure: as §4

MCF7 = assay: Cytostatic activity, cell counting (Coulter counter); format: cell-based; settings: Homo sapiens, MCF7, 72 h, read-out: IC50 MCF7
Text: as §1, §2

[9] = test system: MCF7 cells infected with Mycoplasma hyorhnis (HYOR); assay: Cytostatic activity in mycoplasma-infected cells; format: cell-based, human; settings: for IC50: Homo sapiens, MCF7, 72 h, read-out: IC50 MCF7/HYOR; for Loss of potency: MCF7/HYOR versus MCF7
Text: as §1, §2

Compound | IC50 (HL-60) | IC50 (NB4) | LD50 (KG1a cell line) | stem cell selectivity [8] | Stem cell % [8] | IC50 (NB4R2) | IC50 (K562) | IC50 (U937) | IC50 (KG1) | IC50 (MCF7) | IC50 [9] | Loss of potency [9] | other results
C[C@H](NP(=O)(Oc1cccc2ccccc12)OC1C[C@H](n2cnc3c(N)nc(Cl)nc32)O[C@@H]1CO)C(=O)OCC(C)(C)C (stereo partly drawn) [Compound 6, 2-Chloro-2′-deoxyadenosine-3′-[1-naphthyl-(2,2-dimethylpropoxy-L-alaninyl)]phosphate] | 0.3 µM | 1 µM |  |  |  |  |  |  |  |  |  |  | Loss of potency ([1]; L1210/HYOR versus L1210): 4-fold; IC50 ([1]; Mus musculus, L1210, 48 h, read-out: IC50 L1210/HYOR): 4 µM; EC50 ([2]; Homo sapiens, Z-138, 72 h, read-out: EC50 (μM) Ab): 1.5 µM; Top Inhibition (%) ([2]; Z-138, CellTiterGlo, 72 h): 101%; Top Inhibition (%) ([3]; CellTiterGlo): 98.6%; EC50 ([3]; Homo sapiens, read-out: EC50 (μM) Ab): 0.29 µM; Top Inhibition (%) ([4]; HEL92.1.7, CellTiterGlo, 72 h): 98.6%; EC50 ([4]; Homo sapiens, HEL 92.1.7, 72 h, read-out: EC50 (μM) Ab): 0.07 µM; Top Inhibition (%) ([5]; HL-60, CellTiterGlo, 72 h): 96%; EC50 ([5]; Homo sapiens, HL-60, 72 h, read-out: EC50 (μM) Ab): 0.23 µM; EC50 ([6]; Homo sapiens, KG-1, 72 h, read-out: EC50 (μM) Ab): 1.2 µM; Top Inhibition (%) ([6]; KG-1, CellTiterGlo, 72 h): 98.6%; IC50 (L1210): 1 µM; EC50 ([7]; Homo sapiens, MCF7, 72 h, read-out: EC50 (μM) Ab): 6.8 µM; Top Inhibition (%) ([7]; MCF-7, CellTiterGlo, 72 h): 102%
C[C@H](NP(=O)(Oc1cccc2ccccc12)OC1C[C@H](n2cnc3c(N)nc(Cl)nc32)O[C@@H]1CO)C(=O)OCc1ccccc1 (some centres unmarked) [Compound 18] | 0.39 µM | 0.07 µM | 0.27 μm | exhibited stem cell selectivity | 4% | 1.29 µM | 5.14 µM | 0.01 µM | 0.31 µM |  |  |  | targeting of LSCs when compared to cladribine [8]: showed preferential targeting of LSCs
C[C@H](NP(=O)(Oc1ccccc1)OC1C[C@H](n2cnc3c(N)nc(Cl)nc32)O[C@@H]1CO)C(=O)OCc1ccccc1 (some centres unmarked) [Compound 19] | 0.1 µM | 0.24 µM | 0.83 μm | exhibited stem cell selectivity | 3.1% | 0.11 µM | > 10 µM | 0.03 µM | 0.38 µM | 5.2 µM | 26 µM | 5-fold | 
C[C@H](NP(=O)(OC[C@H]1O[C@@H](n2cnc3c(N)nc(Cl)nc32)CC1O)Oc1ccccc1)C(=O)OCc1ccccc1 (some centres unmarked) [Y, reference compound] | 1.75 µM | 0.23 µM | 1.7 μm |  | 2% | 0.63 µM | 8.05 µM | 0.08 µM | 0.67 µM | 2.1 µM | 33 µM | 16-fold | 
